# Assay results taken from ChEMBL document CHEMBL1201862, “PubChem BioAssay data set” (2004).
# The source made the active and inactive calls.
# What was measured:
# [1] = target: Beta-galactosidase (Escherichia coli, UniProt Q8VNN2); experiment: PubChem AID 485352; assay type: functional
# [2] = target: T1, Type-1 angiotensin II receptor (Homo sapiens, UniProt P30556); experiment: antagonism of angiotensin II type 1 receptor – cell-based, uHTS hits, selectivity assay for APJ receptor antagonist project, dose response (AID 463214); assay type: functional;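 note: antagonist potency against angiotensin II stimulated AT1 response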
# T1 sequence (P30556 whole entry): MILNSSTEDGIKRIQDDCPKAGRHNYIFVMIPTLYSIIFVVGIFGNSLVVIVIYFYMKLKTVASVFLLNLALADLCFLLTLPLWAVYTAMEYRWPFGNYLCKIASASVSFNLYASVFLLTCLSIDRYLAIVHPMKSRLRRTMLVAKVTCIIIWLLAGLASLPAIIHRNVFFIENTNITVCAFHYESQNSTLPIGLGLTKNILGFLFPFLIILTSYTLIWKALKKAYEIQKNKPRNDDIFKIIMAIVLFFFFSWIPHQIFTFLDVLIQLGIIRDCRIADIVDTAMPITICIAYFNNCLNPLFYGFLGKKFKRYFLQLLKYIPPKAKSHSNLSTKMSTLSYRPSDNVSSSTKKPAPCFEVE
# [3] = target: Galanin receptor type 3 (Homo sapiens, UniProt O60755); experiment: Fluorescence-based cell-based primary high throughput dose response assay to identify antagonists of the Galanin Receptor 3 (GalR3).; assay type: functional
# [4] = target: Arf-GAP with SH3 domain, ANK repeat and PH domain-containing protein 1 (Homo sapiens, UniProt Q9ULH1); assay type: functional;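 note: biochemical fluorescence polarization dose–response screen measuring inhibition of ASAP1; ASAP1 GAP domain stimulating GTP hydrolysis by truncated human ARF1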
# Chain of Arf-GAP with SH3 domain, ANK repeat and PH domain-containing protein 1 (Q9ULH1 whole entry, the tested form may be a part): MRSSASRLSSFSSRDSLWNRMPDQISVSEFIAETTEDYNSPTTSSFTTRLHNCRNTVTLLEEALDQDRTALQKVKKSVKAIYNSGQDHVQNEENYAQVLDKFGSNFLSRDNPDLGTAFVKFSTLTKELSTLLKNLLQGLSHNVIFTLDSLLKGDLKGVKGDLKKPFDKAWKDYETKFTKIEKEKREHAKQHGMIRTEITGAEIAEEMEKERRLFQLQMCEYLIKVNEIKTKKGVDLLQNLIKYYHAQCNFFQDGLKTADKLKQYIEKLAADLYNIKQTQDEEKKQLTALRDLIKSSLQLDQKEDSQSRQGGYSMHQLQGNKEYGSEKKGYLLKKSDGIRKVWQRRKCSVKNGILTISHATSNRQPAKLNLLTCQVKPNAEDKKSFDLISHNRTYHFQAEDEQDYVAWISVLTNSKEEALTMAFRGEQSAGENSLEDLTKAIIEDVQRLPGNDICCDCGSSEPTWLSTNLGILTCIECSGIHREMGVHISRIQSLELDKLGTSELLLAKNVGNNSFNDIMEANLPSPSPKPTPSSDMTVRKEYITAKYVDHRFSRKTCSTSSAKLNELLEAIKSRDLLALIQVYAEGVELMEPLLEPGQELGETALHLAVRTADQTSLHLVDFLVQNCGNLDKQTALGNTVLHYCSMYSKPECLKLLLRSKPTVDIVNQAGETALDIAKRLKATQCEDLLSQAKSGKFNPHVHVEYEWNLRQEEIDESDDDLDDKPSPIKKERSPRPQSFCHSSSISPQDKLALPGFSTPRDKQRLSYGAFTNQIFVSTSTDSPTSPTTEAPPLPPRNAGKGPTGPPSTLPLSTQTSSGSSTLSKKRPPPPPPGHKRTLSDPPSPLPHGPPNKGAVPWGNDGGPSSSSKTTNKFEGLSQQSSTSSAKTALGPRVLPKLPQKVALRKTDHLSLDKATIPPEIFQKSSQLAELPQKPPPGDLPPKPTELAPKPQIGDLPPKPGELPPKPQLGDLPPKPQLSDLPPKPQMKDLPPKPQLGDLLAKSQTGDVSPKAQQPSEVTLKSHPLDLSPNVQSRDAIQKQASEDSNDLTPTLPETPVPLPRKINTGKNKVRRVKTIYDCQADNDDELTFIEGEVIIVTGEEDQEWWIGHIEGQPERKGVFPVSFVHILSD
# [5] = tested on: Vero; experiment: viability loss in Vero cells – cell-based, plate reader, cherry-pick samples, cytotoxicity control, dose response (AID 687020); assay type: functional; details: Chlorocebus sabaeus
# [6] = acridine orange displacement from DNA – biochemical, fluorescence polarization, cherry-pick, artefact control for RAD54 inhibitor project, dose response (AID 651673); assay type: functional
# [7] = target: T2, DNA repair and recombination protein RAD54-like (Homo sapiens, UniProt Q92698); experiment: RAD54 Holliday junction migration blockers – biochemical, fluorescence, cherry-picked samples, dose series, confirmation (AID 651657); assay type: functional
# T2 sequence (Q92698 whole entry): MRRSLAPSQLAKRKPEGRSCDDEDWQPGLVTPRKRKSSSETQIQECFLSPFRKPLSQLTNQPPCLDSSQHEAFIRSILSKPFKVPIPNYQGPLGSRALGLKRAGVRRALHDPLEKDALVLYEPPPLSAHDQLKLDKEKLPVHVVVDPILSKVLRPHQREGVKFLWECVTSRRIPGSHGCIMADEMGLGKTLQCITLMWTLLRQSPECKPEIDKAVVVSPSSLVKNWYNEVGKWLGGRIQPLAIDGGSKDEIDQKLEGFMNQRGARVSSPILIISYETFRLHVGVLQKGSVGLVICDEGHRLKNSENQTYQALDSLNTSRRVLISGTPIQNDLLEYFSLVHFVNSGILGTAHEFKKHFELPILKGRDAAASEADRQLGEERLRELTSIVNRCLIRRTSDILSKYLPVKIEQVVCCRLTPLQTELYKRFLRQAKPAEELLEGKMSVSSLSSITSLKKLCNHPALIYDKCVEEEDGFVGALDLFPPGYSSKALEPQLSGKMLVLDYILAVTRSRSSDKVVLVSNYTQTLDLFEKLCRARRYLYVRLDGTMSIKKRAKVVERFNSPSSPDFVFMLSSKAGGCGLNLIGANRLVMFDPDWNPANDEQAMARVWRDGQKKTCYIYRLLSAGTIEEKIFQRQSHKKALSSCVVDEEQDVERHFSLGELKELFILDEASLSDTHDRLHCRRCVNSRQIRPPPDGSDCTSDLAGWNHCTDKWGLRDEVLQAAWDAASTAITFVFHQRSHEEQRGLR
# [8] = luciferase reporter signal suppression in cells – H4 neuroglioma cells, luminescence, dose response (AID 1990); assay type: functional, cell-based
# [9] = Luminescence Cell-Based Dose Response HTS to Identify Inhibitors of 5'UTR Stem-Loop Driven Prion Protein mRNA Translation in H4 Neuroglioblastoma Cells. [Related pubchem assays: 1827 (Project Summary), 1813 (Primary HTS)]; assay type: functional
# [10] = alpha-synuclein stem-loop luciferase translation blockers – H4 neuroglioma cells, luminescence, confirmation (AID 1988); assay type: functional, cell-based
# [11] = tested on: HEK293; experiment: EBV LMP1 TES2 canonical NF-kB signalling blockers – cell-based, HEK293, luciferase, cherry-pick, dose response (AID 588343); assay type: functional; details: Homo sapiens
# [12] = viability loss in HEK293T cells – cell-based, cherry-picks, cytotoxicity control for HIV Vif inhibitor project, dose response (AID 652208); assay type: functional
# [13] = target: ADP-ribosylation factor GTPase-activating protein 1 (Rattus norvegicus, UniProt Q62848); experiment: Fluorescence polarization-based biochemical high throughput dose response screening assay to identify inhibitors of ADP-ribosylation factor GTPase activating protein 1 (ARFGAP1).; assay type: functional
# Chain of ADP-ribosylation factor GTPase-activating protein 1 (Q62848 whole entry, the tested form may be a part): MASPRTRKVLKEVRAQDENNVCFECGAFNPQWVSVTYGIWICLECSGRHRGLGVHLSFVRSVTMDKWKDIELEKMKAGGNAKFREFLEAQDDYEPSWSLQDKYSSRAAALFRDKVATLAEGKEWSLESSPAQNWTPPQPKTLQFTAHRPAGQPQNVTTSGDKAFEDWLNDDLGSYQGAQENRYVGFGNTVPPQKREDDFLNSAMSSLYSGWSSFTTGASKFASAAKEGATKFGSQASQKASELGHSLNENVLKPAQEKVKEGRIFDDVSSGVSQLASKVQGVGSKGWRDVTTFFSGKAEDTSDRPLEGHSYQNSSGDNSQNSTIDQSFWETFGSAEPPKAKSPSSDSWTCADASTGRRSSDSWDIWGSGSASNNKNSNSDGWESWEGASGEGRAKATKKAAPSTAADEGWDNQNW
# [14] = viability loss in CEM21 cells – cell-based, CellTiter-Glo luminescence, cherry-picked, cytotoxicity control for viral fusion inhibitor project, dose response (AID 652042); assay type: functional;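 note: potency for signal decrease meaning cytotoxicity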
# [15] = HIV-1 AD8 envelope cell-cell fusion blockers – cherry-pick, dose response (AID 652062); assay type: functional, cell-based;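 note: luciferase signal from cell-cell fusion driven by HIV-1 clade B AD8 Env; potency is for inhibitors of fusion seen as a drop in luminescence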
# [16] = target: T3, Corticotropin-releasing factor receptor 2/Corticotropin-releasing factor-binding protein (Homo sapiens, UniProt P24387+Q13324); experiment: Dose Response confirmation of uHTS hits for small molecule antagonists of the CRF-binding protein and CRF-R2 receptor complex.; assay type: functional; details: read-out: IC50_Mean
# T3 sequence (Q13324 whole entry): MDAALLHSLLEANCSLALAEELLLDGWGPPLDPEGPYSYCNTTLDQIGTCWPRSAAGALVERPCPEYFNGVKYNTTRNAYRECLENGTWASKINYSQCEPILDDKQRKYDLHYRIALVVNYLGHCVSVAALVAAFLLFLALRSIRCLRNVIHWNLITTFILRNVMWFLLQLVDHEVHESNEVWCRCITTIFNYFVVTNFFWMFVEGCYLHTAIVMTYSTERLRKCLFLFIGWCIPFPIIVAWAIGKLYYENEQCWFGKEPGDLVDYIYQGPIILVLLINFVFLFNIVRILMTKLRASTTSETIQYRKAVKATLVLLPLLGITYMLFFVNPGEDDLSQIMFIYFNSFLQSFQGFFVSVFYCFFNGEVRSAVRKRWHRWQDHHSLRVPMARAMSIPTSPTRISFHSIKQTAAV
# T3 sequence (P24387 whole entry): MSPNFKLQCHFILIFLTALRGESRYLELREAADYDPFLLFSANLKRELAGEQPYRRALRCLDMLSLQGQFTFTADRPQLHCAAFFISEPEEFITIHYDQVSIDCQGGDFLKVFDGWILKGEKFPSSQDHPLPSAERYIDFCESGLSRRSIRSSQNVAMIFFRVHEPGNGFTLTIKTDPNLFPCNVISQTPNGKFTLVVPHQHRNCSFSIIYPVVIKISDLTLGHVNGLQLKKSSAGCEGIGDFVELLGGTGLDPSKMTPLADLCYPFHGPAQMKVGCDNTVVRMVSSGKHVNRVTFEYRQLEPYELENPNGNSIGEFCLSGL
# [17] = target: T3, Corticotropin-releasing factor receptor 2/Corticotropin-releasing factor-binding protein; experiment: activators of CRF receptor 2 with binding protein – uHTS hits, confirmation (AID 602473); assay type: functional; details: read-out: EC50_Mean
# [18] = blockers of CRF-binding protein–CRF-R2 complex – cell-based, uHTS hits, 384-well, dose response (AID 651639); assay type: functional, Homo sapiens; details: read-out: IC50_Mean
# [19] = target: T4, RNA-binding protein pos-1 (Caenorhabditis elegans, UniProt G5EF15); experiment: disruptors of C. elegans POS-1 RNA interaction – biochemical, fluorescence polarization, dose response (AID 1964);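 note: purified POS-1 fused to maltose binding protein made in E. coli; potency of compounds blocking POS-1 binding to fluorescent RNA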
# T4 sequence (G5EF15 whole entry): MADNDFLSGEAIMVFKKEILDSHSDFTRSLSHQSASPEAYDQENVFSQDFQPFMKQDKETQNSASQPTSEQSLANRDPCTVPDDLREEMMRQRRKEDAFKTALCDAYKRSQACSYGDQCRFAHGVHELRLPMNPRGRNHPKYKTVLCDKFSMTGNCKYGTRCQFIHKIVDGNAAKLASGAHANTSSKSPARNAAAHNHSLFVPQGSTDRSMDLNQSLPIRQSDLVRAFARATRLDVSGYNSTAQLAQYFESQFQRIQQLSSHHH
# [20] = target: T5, Zinc finger protein mex-5 (Caenorhabditis elegans, UniProt Q9XUB2); experiment: potency of MEX-5 RNA-binding blockers – biochemical, C. elegans, fluorescence polarization, dose response (AID 1960)
# T5 sequence (Q9XUB2 whole entry): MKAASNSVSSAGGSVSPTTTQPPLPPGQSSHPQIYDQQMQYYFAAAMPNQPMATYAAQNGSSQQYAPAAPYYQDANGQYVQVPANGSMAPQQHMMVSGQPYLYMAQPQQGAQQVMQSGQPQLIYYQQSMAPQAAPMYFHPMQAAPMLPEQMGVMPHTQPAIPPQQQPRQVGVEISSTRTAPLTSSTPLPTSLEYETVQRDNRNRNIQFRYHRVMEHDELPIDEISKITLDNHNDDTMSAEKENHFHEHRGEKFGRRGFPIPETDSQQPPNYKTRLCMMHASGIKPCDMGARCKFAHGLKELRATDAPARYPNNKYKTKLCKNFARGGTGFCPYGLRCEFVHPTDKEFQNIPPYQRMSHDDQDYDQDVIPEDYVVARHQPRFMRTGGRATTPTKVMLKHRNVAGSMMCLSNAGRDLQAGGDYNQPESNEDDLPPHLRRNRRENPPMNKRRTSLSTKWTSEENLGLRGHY
# [21] = target: Genome polyprotein (dengue virus type 2, UniProt P29990); experiment: flavivirus cap methylation enzyme inhibition – biochemical, confirmation dose response, primary screen (AID 588689); assay type: functional
# Chain of Genome polyprotein (P29990 2492-3391 limits assumed): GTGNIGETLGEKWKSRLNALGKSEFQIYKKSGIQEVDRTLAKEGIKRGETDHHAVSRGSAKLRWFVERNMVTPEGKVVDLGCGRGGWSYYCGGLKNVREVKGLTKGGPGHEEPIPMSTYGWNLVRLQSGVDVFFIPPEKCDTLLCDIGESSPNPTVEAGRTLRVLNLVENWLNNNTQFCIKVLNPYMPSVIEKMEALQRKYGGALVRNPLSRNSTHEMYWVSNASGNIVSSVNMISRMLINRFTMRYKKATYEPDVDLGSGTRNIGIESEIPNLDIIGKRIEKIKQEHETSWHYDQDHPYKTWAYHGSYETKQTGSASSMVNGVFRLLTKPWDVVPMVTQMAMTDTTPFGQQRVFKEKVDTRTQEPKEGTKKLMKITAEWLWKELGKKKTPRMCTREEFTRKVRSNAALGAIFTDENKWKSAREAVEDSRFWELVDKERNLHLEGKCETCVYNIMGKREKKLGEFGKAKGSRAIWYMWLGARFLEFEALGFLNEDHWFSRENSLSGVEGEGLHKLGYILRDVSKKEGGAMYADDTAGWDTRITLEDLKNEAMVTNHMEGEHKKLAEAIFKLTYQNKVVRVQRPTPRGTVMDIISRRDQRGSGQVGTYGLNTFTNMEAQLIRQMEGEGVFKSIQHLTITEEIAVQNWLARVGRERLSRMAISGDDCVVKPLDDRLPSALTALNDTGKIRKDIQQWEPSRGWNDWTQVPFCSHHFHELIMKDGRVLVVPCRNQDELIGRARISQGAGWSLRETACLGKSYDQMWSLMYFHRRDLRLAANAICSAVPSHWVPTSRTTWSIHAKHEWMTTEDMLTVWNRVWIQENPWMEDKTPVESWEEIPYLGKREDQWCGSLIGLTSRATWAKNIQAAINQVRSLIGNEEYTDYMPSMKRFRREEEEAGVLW
# [22] = target: T6, Protein skinhead-1 (Caenorhabditis elegans, UniProt P34707); assay type: functional
# T6 sequence (P34707 whole entry): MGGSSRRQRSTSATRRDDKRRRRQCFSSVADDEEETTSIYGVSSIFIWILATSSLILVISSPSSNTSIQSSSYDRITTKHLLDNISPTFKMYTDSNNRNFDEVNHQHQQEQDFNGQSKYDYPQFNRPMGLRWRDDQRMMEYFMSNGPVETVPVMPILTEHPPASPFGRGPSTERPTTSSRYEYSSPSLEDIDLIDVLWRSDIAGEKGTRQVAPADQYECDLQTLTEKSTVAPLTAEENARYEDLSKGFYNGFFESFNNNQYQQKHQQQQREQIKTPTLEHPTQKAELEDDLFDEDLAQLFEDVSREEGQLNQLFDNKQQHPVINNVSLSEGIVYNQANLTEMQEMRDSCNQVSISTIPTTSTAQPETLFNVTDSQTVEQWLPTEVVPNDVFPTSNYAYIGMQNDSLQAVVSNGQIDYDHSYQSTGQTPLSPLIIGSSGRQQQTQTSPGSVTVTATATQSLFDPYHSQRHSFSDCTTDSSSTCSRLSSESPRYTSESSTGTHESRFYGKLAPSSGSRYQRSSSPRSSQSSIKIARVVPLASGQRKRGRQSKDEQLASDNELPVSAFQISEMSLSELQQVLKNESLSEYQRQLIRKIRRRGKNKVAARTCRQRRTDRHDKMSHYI
# [23] = target: Hepatocyte nuclear factor 4-alpha (Homo sapiens, UniProt P41235); assay type: functional, cell-based;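 note: biochemical luminescence-based dose-response counterscreen measuring inhibition of HNF4 dimerization, run alongside a screen for blockers of ABHD5–perilipin-5 interaction; split luciferase complementation of HNF4 fusion proteins in cell lysate measuring dimerization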
# [24] = Fluorescence-based cell-based high throughput dose response assay for inhibitors of the interaction of nucleotide-binding oligomerization domain containing 2 (NOD2) and the receptor-interacting serine-threonine kinase 2 (RIPK2).; assay type: functional; details: Homo sapiens
# [25] = target: Beta Lactamase (Pseudomonas aeruginosa, UniProt Q932Y6); experiment: BLA reporter interference, concentration series – BLA reporter cells, FRET fluorescence, artefact control for NOD2-RIPK2 interaction inhibitor project, dose response (AID 651552); assay type: functional, cell-based
# [26] = target: T7, Fatty acid synthase (Homo sapiens, UniProt P49327); experiment: inhibition of human FAS-TE enzyme activity – biochemical, endpoint fluorescence intensity, uHTS hits, dose response (AID 624327); assay type: functional;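 note: fluorescence from hydrolysis of an O-methyl fluorescein acyl ester substrate by the enzyme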
# T7 sequence (P49327 whole entry): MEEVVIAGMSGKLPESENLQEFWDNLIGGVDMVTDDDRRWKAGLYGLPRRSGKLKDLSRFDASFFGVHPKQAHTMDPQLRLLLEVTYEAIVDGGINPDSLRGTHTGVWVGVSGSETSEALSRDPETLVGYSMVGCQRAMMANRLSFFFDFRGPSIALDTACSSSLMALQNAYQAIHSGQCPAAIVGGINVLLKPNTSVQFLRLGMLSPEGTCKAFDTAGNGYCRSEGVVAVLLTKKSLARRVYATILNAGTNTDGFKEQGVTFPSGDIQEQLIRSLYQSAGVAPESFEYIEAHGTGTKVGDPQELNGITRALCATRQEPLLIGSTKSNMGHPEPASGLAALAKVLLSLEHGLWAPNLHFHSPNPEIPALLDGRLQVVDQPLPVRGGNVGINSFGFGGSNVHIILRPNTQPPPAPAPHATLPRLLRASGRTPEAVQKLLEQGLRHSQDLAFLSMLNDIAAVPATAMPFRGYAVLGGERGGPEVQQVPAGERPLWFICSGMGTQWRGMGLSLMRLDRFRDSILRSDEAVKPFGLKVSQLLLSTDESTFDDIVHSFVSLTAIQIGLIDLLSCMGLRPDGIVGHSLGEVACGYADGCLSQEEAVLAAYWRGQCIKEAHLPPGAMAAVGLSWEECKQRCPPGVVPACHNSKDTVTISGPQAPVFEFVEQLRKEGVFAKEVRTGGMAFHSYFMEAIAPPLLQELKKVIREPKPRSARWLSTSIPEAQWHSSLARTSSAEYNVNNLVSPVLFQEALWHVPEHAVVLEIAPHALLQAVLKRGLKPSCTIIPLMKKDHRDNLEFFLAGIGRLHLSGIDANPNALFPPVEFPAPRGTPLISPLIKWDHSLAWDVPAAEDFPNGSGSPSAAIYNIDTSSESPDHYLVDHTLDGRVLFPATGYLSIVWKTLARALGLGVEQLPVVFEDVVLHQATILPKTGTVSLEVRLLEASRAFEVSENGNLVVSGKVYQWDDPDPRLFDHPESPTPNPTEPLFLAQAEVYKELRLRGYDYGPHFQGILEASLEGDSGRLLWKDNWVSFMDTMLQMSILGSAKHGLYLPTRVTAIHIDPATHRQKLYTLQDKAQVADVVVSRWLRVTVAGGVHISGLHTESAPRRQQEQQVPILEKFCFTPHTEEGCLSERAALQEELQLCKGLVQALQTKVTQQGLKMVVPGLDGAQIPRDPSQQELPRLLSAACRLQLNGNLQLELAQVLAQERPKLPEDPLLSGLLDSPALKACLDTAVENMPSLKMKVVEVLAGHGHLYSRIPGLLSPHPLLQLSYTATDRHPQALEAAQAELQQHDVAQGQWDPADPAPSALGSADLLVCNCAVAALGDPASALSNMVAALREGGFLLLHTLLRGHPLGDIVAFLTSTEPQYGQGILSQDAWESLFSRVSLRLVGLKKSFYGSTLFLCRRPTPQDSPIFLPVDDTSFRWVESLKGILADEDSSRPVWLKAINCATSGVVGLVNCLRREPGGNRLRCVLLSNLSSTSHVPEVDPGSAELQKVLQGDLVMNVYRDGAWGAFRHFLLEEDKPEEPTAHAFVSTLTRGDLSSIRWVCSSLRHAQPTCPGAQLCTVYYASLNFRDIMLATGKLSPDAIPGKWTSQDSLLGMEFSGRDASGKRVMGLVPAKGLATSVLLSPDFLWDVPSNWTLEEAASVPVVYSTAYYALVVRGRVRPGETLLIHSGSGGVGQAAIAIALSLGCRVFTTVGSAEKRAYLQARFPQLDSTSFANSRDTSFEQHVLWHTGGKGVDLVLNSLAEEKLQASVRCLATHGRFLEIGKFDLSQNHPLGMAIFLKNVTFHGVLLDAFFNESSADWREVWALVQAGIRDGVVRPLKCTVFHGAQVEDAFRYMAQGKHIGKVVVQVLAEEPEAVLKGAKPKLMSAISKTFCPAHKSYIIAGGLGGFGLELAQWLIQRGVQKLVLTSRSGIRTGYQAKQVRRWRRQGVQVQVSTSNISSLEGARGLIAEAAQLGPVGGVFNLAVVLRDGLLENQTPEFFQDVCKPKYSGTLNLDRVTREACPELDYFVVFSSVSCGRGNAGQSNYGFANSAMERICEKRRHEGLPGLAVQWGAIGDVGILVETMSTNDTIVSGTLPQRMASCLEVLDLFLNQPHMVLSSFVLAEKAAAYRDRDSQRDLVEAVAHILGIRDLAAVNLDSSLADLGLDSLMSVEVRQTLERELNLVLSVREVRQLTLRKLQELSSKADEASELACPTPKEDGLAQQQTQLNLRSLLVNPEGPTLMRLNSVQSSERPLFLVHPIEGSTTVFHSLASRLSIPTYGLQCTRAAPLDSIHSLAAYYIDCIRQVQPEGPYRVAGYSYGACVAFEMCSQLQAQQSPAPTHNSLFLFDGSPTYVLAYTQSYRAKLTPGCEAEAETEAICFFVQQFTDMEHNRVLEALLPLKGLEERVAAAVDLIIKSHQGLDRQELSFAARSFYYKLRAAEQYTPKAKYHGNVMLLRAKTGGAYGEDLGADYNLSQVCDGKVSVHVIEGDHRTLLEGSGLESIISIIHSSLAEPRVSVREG
# [27] = target: T7, Fatty acid synthase; experiment: inhibition of human FAS-TE enzyme activity – biochemical, kinetic fluorescence intensity, dose response (AID 624326); assay type: functional;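 note: rate of fluorescence rise from hydrolysis of a fluorogenic O-methyl fluorescein ester substrate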
compound,measurement,setting,value
Fc1ccc(NC(=S)NNc2ncc(C(F)(F)F)cc2Cl)c(F)c1,EC50,[1],> 40 µM (inactive)
same,IC50,[2],15.6 µM (active)
same,IC50,[3],1.79 µM (active)
O=C(Cn1nc(-c2ccc3c(c2)OCCO3)ccc1=O)Nc1ccc(-n2cnnn2)cc1,IC50,[4],38.5 µM (inactive)
COc1ccc2ccccc2c1CNC(C)c1ccccc1 (configuration not stated),AC50,[5],31 µM (active)
CCOC(=O)c1cnc2c(C)cc(Cl)cc2c1NCCCN1CCOCC1,AC50,[6],60.9 µM (active)
same,AC50,[7],17.4 µM (active)
COc1ccc2cc(-c3cc(C(=O)OCC(=O)NC4CCS(=O)(=O)C4)c4ccccc4n3)ccc2c1 (configuration not stated),EC50,[8],10.1 µM (inconclusive)
same,EC50,[9],7.41 µM (active)
same,EC50,[10],6.8 µM (active)
same,AC50,[11],1.09 µM (active)
same,AC50,[12],29.3 µM (active)
O=C(Nc1ccc(CN2CCOCC2)cc1)c1ccc(-c2cccc(Cl)c2)o1,IC50,[13],81.7 µM (inactive)
same,AC50,[14],44.2 µM (active)
same,AC50,[15],32.2 µM (active)
CC(C)(C)c1cc(C(=O)NNC(=O)Nc2cccc(Cl)c2)n(Cc2ccccc2)n1,IC50,[16],2 µM (active)
same,EC50,[17],> 53 µM (inactive)
same,IC50,[18],5.13 µM (active)
COc1cc(/C=C(\C#N)c2ccccn2)ccc1OCC(=O)Nc1c(Cl)cccc1Cl,IC50,[13],96.6 µM (inactive)
COC/C=C/C1=CC2=CC(=O)C(C)(OC(=O)C3CCCC3)C(=O)C2=CO1 (configuration not stated),EC50,[19],> 300 µM (not active)
same,EC50,[20],> 300 µM (not active)
same,IC50,[21],90.2 µM (active)
same,IC50,[22],> 100 µM (inactive)
same,IC50,[23],11.4 µM (inactive)
COc1ccc(OC)c(S(=O)(=O)N2c3ccccc3CC2C)c1 (configuration not stated),IC50,[16],33.9 µM (active)
same,EC50,[17],> 53 µM (inactive)
same,IC50,[18],3.48 µM (active)
N=C(N/N=C/c1ccnc2ccccc12)SC1CC(=O)N(c2ccc(Br)cc2)C1=O (configuration not stated),IC50,[4],12.7 µM (inactive)
CCOC(=O)[C@]12Cc3ccc(C)cc3[C@H]1N(C1CCCCC1)C(=O)c1ccccc12,IC50,[24],2.19 µM (active)
same,IC50,[25],20 µM (inactive)
same,IC50,[26],6.12 µM (active)
same,IC50,[27],6.79 µM (active)
